# Measured values as given in patent US11304934B2, “Use of isoxazoline derivatives for the treatment or prevention of arthropod infestations in poultry” (Intervet Inc., priority 2013, dated 2022).
# Legend:
# Dermanyssus gallinae = test: Efficacy of fluralaner via medicated drinking water against artificially induced poultry red mite infestations of laying hens; format: in vivo; conditions: for % Inhibition of mites 24 hours after infestation / % Mortality of mites 24 hours after infestation: laying hens
# Procedure: (§1) Groups A-D (n=6) were treated with doses of 2, 1 and 0.5 mg fluralaner/kg BW once or 1 mg fluralaner/kg BW split dose (0.5 mg/kg BW on 2 occasions).
# Drinking water consumption in each was measured on three days prior to administration to calculate the average daily water consumption. Medicated water was prepared by diluting a fluralaner solution (10 mg/mL) as shown in the table below to the calculated fluralaner concentration.
# (§2) On D0 (group D additionally on D7), the hens in groups A-D received fluralaner via medicated drinking water. Group E received un-medicated drinking water ad libitum.
# The dose to be administered was calculated based on average body weights of each treatment group, obtained one day before treatment (D-1, D6). A fluralaner stock solution was diluted in the drinking water to prepare medicated water ready for consumption.
# The volume of medicated water offered per group on D0 (group D also on D7) was approximately 50% of the calculated mean daily water intake measured previously in the respective group in order to ensure consumption of the full dose.
# Once all medicated water was consumed the other 50% volume of the mean daily water intake was supplied as tap water in the same drinker.
# On Day 1, Day 5, Day 8, Day 12, D15, D19 and D22 four of six hens per group were infested with approximately 200 vital, D. gallinae mites (unfed nymphs and adults that starved before infestation for 7 days).
# From each infested hen approximately 25 engorged mites were collected and incubated for approximately 24 hours. The dead, damaged and/or live mites were counted visually using a binocular.
# Mites were classified as dead if no movement was determined or mites lay in a dorsal position. Mites were classified as damaged if their movement was uncoordinated.
# The Mite Mortality and Mite Inhibition percentage was calculated for each treated group in comparison to a not-treated negative control group.
# [1] = Tolerability of fluralaner via medicated drinking water in hens; format: in vivo, laying hens; conditions: 2, 1, 0.5 mg/kg BW once or 2 × 0.5 mg/kg BW via medicated drinking water
# Procedure: as §1, §2
# [2] = Group A, 2 mg/kg BW once (D0) via drinking water, infestation on D1
# [3] = Group A, 2 mg/kg BW once (D0) via drinking water, infestation on D5
# [4] = Group A, 2 mg/kg BW once (D0) via drinking water, infestation on D8
# [5] = Group A, 2 mg/kg BW once (D0) via drinking water, infestation on D12
# [6] = Group A, 2 mg/kg BW once (D0) via drinking water, infestation on D15
# [7] = Group A, 2 mg/kg BW once (D0) via drinking water, infestation on D19
# [8] = Group A, 2 mg/kg BW once (D0) via drinking water, infestation on D22
# [9] = Group B, 1 mg/kg BW once (D0) via drinking water, infestation on D1
# [10] = Group B, 1 mg/kg BW once (D0) via drinking water, infestation on D5
# [11] = Group B, 1 mg/kg BW once (D0) via drinking water, infestation on D8
# [12] = Group B, 1 mg/kg BW once (D0) via drinking water, infestation on D12
# [13] = Group B, 1 mg/kg BW once (D0) via drinking water, infestation on D15
# [14] = Group B, 1 mg/kg BW once (D0) via drinking water, infestation on D19
# [15] = Group B, 1 mg/kg BW once (D0) via drinking water, infestation on D22
# [16] = Group C, 0.5 mg/kg BW once (D0) via drinking water, infestation on D1
# [17] = Group C, 0.5 mg/kg BW once (D0) via drinking water, infestation on D5
# [18] = Group C, 0.5 mg/kg BW once (D0) via drinking water, infestation on D8
# [19] = Group C, 0.5 mg/kg BW once (D0) via drinking water, infestation on D12
# [20] = Group C, 0.5 mg/kg BW once (D0) via drinking water, infestation on D15
# [21] = Group C, 0.5 mg/kg BW once (D0) via drinking water, infestation on D19
# [22] = Group C, 0.5 mg/kg BW once (D0) via drinking water, infestation on D22
# [23] = Group D, 1 (2 × 0.5) mg/kg BW split dose on D0 and D7 via drinking water, infestation on D1
# [24] = Group D, 1 (2 × 0.5) mg/kg BW split dose on D0 and D7 via drinking water, infestation on D5
# [25] = Group D, 1 (2 × 0.5) mg/kg BW split dose on D0 and D7 via drinking water, infestation on D8
# [26] = Group D, 1 (2 × 0.5) mg/kg BW split dose on D0 and D7 via drinking water, infestation on D12
# [27] = Group D, 1 (2 × 0.5) mg/kg BW split dose on D0 and D7 via drinking water, infestation on D15
# [28] = Group D, 1 (2 × 0.5) mg/kg BW split dose on D0 and D7 via drinking water, infestation on D19
# [29] = Group D, 1 (2 × 0.5) mg/kg BW split dose on D0 and D7 via drinking water, infestation on D22
structure (smiles),measurement,setting,value
"Cc1cc(C2=NOC(c3cc(Cl)cc(Cl)c3)(C(F)(F)F)C2)ccc1C(=O)NCC(=O)NCC(F)(F)F (stereo not shown) [fluralaner, 4-[5-(3,5-Dichlorophenyl)-5-trifluoromethyl-4,5-dihydroisoxazol-3-yl]-2-methyl-N-[(2,2,2-trifluoro-ethylcarbamoyl)-methyl]-benzamide]",% Inhibition of mites 24 hours after infestation,Dermanyssus gallinae; [2],100%
same,% Mortality of mites 24 hours after infestation,Dermanyssus gallinae; [2],100%
same,% Inhibition of mites 24 hours after infestation,Dermanyssus gallinae; [3],100%
same,% Mortality of mites 24 hours after infestation,Dermanyssus gallinae; [3],100%
same,% Inhibition of mites 24 hours after infestation,Dermanyssus gallinae; [4],100%
same,% Mortality of mites 24 hours after infestation,Dermanyssus gallinae; [4],100%
same,% Inhibition of mites 24 hours after infestation,Dermanyssus gallinae; [5],100%
same,% Mortality of mites 24 hours after infestation,Dermanyssus gallinae; [5],100%
same,% Inhibition of mites 24 hours after infestation,Dermanyssus gallinae; [6],81%
same,% Mortality of mites 24 hours after infestation,Dermanyssus gallinae; [6],77%
same,% Inhibition of mites 24 hours after infestation,Dermanyssus gallinae; [7],14%
same,% Mortality of mites 24 hours after infestation,Dermanyssus gallinae; [7],1%
same,% Inhibition of mites 24 hours after infestation,Dermanyssus gallinae; [8],0%
same,% Mortality of mites 24 hours after infestation,Dermanyssus gallinae; [8],0%
same,% Inhibition of mites 24 hours after infestation,Dermanyssus gallinae; [9],100%
same,% Mortality of mites 24 hours after infestation,Dermanyssus gallinae; [9],100%
same,% Inhibition of mites 24 hours after infestation,Dermanyssus gallinae; [10],100%
same,% Mortality of mites 24 hours after infestation,Dermanyssus gallinae; [10],100%
same,% Inhibition of mites 24 hours after infestation,Dermanyssus gallinae; [11],100%
same,% Mortality of mites 24 hours after infestation,Dermanyssus gallinae; [11],100%
same,% Inhibition of mites 24 hours after infestation,Dermanyssus gallinae; [12],95%
same,% Mortality of mites 24 hours after infestation,Dermanyssus gallinae; [12],94%
same,% Inhibition of mites 24 hours after infestation,Dermanyssus gallinae; [13],81%
same,% Mortality of mites 24 hours after infestation,Dermanyssus gallinae; [13],77%
same,% Inhibition of mites 24 hours after infestation,Dermanyssus gallinae; [14],3%
same,% Mortality of mites 24 hours after infestation,Dermanyssus gallinae; [14],2%
same,% Inhibition of mites 24 hours after infestation,Dermanyssus gallinae; [15],0%
same,% Mortality of mites 24 hours after infestation,Dermanyssus gallinae; [15],0%
same,% Inhibition of mites 24 hours after infestation,Dermanyssus gallinae; [16],100%
same,% Mortality of mites 24 hours after infestation,Dermanyssus gallinae; [16],100%
same,% Inhibition of mites 24 hours after infestation,Dermanyssus gallinae; [17],100%
same,% Mortality of mites 24 hours after infestation,Dermanyssus gallinae; [17],100%
same,% Inhibition of mites 24 hours after infestation,Dermanyssus gallinae; [18],100%
same,% Mortality of mites 24 hours after infestation,Dermanyssus gallinae; [18],97%
same,% Inhibition of mites 24 hours after infestation,Dermanyssus gallinae; [19],75%
same,% Mortality of mites 24 hours after infestation,Dermanyssus gallinae; [19],55%
same,% Inhibition of mites 24 hours after infestation,Dermanyssus gallinae; [20],19%
same,% Mortality of mites 24 hours after infestation,Dermanyssus gallinae; [20],15%
same,% Inhibition of mites 24 hours after infestation,Dermanyssus gallinae; [21],0%
same,% Mortality of mites 24 hours after infestation,Dermanyssus gallinae; [21],0%
same,% Inhibition of mites 24 hours after infestation,Dermanyssus gallinae; [22],0%
same,% Mortality of mites 24 hours after infestation,Dermanyssus gallinae; [22],0%
same,% Inhibition of mites 24 hours after infestation,Dermanyssus gallinae; [23],100%
same,% Mortality of mites 24 hours after infestation,Dermanyssus gallinae; [23],100%
same,% Inhibition of mites 24 hours after infestation,Dermanyssus gallinae; [24],100%
same,% Mortality of mites 24 hours after infestation,Dermanyssus gallinae; [24],100%
same,% Inhibition of mites 24 hours after infestation,Dermanyssus gallinae; [25],100%
same,% Mortality of mites 24 hours after infestation,Dermanyssus gallinae; [25],100%
same,% Inhibition of mites 24 hours after infestation,Dermanyssus gallinae; [26],100%
same,% Mortality of mites 24 hours after infestation,Dermanyssus gallinae; [26],100%
same,% Inhibition of mites 24 hours after infestation,Dermanyssus gallinae; [27],99%
same,% Mortality of mites 24 hours after infestation,Dermanyssus gallinae; [27],98%
same,% Inhibition of mites 24 hours after infestation,Dermanyssus gallinae; [28],66%
same,% Mortality of mites 24 hours after infestation,Dermanyssus gallinae; [28],59%
same,% Inhibition of mites 24 hours after infestation,Dermanyssus gallinae; [29],27%
same,% Mortality of mites 24 hours after infestation,Dermanyssus gallinae; [29],14%
same,Onset of action against red mites,"Dermanyssus gallinae; all administered doses, orally via drinking water",fast onset of action
same,Tolerability in hens,[1],well tolerated
